These results are taken from patent US7495018B2, “Substituted 1,3-thiazole compounds, their production and use” (Takeda Pharmaceutical Company Limited, priority 2000, dated 2009).

The target of data set [1] is T1, human p38 MAP kinase (Homo sapiens, UniProt Q16539).
T1 construct: FLAG (N); made in house; host or cells: Sf-21 insect cells, co-infected with baculoviruses BAC-HP38 and BAC-caMKK3
In words: p38 MAP kinase inhibition, 32P incorporation into Myelin Basic Protein. To be noted: active type p38 MAP kinase, Myelin Basic Protein substrate, 60 minutes at 30° C.; read-out: IC50 (concentration inhibiting 50% of 32P incorporation into the acid insoluble fraction). Type of data set: biochemical. Here is the method:
(1) Cloning of Human p38 MAP Kinase Gene and Preparation of Recombinant Baculovirus
(3) Preparation of Active Type p38 MAP Kinase
Sf-21 cells were inoculated on 100 mL Sf-900II SF medium (GIBCOBRL) to give 1×10^6 cells/mL, then, cultured for 24 hours at 27° C. Each 0.2 mL of virus stocks BAC-HP38 and BAC-caMKK3 of the recombinant baculovirus were added, then, cultured for further 48 hours. Cells were separated from the culture solution by centrifugal separation (3000 rpm, 10 min.), then, washed with PBS twice. The cells were suspended in 10 mL of Lysis buffer (25 mM HEPES (pH7.5), 1% TritonX, 130 mM NaCl, 1 mM EDTA, 1 mM DTT, 25 mM β-glycerophosphate, […], 1 mM APMSF, 1 mM Sodium orthovanadate), then, treatment by Homogenizer (POLYTRON) for 2 minutes at 20000 rpm was performed twice to lyse the cells. […]
(4) To 37.5 μL of a reaction solution (25 mM HEPES (pH 7.5), 10 mM Magnesium Acetate) containing 260 ng of active type p38 MAP kinase and 1 μg of Myelin Basic Protein was added 2.5 μL of a sample compound dissolved in DMSO, then, the mixture was kept at 30° C. for 5 minutes. […] After drying for 60 minutes at 45° C., 40 μL of Microscint 0 (Packard Japan) was added, and radiation activity was measured by Top Counter (Packard Japan). […]

Data set [2] relates to TNF-α production in THP-1 cells. In words: Inhibitory activity of TNF-α production in LPS-stimulated THP-1 cells. It counts as cell-based. As to conditions: Homo sapiens, LPS 5 μg/mL, 4 hours, TNF-α by ELISA, read-out: IC50 (concentration inhibiting 50% of TNF-α production). The method, then: Measurement of Inhibitory Activity of TNF-α Production
THP-1 cells cultured in a PRMI 1640 medium (Life Technologies, Inc., USA) containing 1% inactivated fetal bovine serum (Life Technologies, Inc.) and 10 mM HEPES (pH 7.5) were inoculated on a 96 well plate to give 1×10^5 cells/well, then, 1 μL of a sample compound dissolved in DMSO was added. After incubation for 1 hour at 37° C. in a CO2 incubator, LPS (Wako Pure Chemical Industries Ltd.) was added to give a final concentration of 5 μg/mL. After incubation for 4 hours at 37° C. in a CO2 incubator, the supernatant was obtained by centrifugal separation. The TNF-α concentration in the supernatant was measured by ELISA (R&D Systems, Quantikine Kit). The concentration (IC50 value) of a sample compound necessary for inhibiting 50% of TNF-α production was calculated by PRISM 2.01 (GraphPad Software).

T1 sequence (Q16539 whole entry): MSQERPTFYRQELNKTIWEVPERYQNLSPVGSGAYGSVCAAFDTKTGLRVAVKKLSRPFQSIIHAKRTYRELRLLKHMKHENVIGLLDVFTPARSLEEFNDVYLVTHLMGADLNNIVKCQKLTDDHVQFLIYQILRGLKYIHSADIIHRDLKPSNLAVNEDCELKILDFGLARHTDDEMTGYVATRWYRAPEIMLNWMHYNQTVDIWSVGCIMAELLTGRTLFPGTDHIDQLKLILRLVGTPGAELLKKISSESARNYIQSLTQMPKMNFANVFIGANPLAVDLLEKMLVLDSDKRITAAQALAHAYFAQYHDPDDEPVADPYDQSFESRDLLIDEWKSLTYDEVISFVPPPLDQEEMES

`Cc1cccc(-c2nc(N(C)C(=O)c3ccc(C)nc3)sc2-c2ccnc(NC3CCCC3)c2)c1` [Example 46-4]: the melting point is 176 to 177 °C. The IC50 in data set [1] is 17 nM. Moreover, the IC50 in data set [2] was determined as 82 nM.

With `CCC(=O)Nc1cc(-c2sc(-c3ccc(S(C)(=O)=O)cc3)nc2-c2cccc(Cl)c2)ccn1` [Example 58-7, N-[4-[4-(3-chlorophenyl)-2-(4-methylsulfonylphenyl)-1,3-thiazol-5-yl]-2-pyridyl]propionamide], the IC50 in data set [2] was 21 nM.

For the compound `CCc1nc(-c2cccc(Cl)c2)c(-c2ccnc(NC(C)=O)c2)s1` [Example 30-2, N-[4-[4-(3-chlorophenyl)-2-ethyl-1,3-thiazol-5-yl]-2-pyridyl]acetamide], the IC50 in data set [2] stood at 120 nM.

Take `CCc1nc(-c2cccc(Cl)c2)c(-c2ccnc(NC3CCCCC3)c2)s1` [Example 36-10, 4-[4-(3-chlorophenyl)-2-ethyl-1,3-thiazol-5-yl]-N-cyclohexyl-2-pyridylamine]: the IC50 in data set [2] amounted to 55 nM.

Compound `CCCCC(=O)Nc1cc(-c2sc(CC)nc2-c2cccc(Cl)c2)ccn1` [Example 88-1, N-[4-[4-(3-chlorophenyl)-2-ethyl-1,3-thiazol-5-yl]-2-pyridyl]valeramide] displayed a melting point of 109 to 110 °C.

Compound `Cc1cccc(-c2nc(N(C)C(=O)c3ccc(Cl)nc3)sc2-c2ccnc(NC3CCCCC3)c2)c1` [Example Compound 44-4, 6-chloro-N-[5-(2-cyclohexylamino-4-pyridyl)-4-(3-methylphenyl)-1,3-thiazol-2-yl]-N-methylnicotinamide] registered a melting point of 171 to 172 °C.

On to `CCc1nc(-c2ccccc2)c(-c2ccnc(NC(=O)OC(C)(C)C)c2)s1` [Example Compound 79-1, 5-[2-(tert-butoxycarbonylamino)-4-pyridyl]-2-ethyl-4-phenyl-1,3-thiazole], for which the melting point fell in the range of 154 to 155 °C.

Turning to `Cc1cccc(-c2nc(-c3ccc(F)cc3)sc2-c2ccnc(C)c2)c1` [Example Compound 14-4, 2-(4-fluorophenyl)-4-(3-methylphenyl)-5-(2-methyl-4-pyridyl)-1,3-thiazole], the melting point fell in the range of 89 to 91 °C.

Compound `Cc1cccc(-c2nc(N(C)C)sc2-c2ccnc(C)c2)c1` [Example Compound 10, N,N-dimethyl-[4-(3-methylphenyl)-5-(2-methyl-4-pyridyl)-1,3-thiazol-2-yl]amine] gave a melting point of 77 to 79 °C.

The term melting point denotes the temperature, or range, at which the solid turns liquid.
